Data reported in patent publication US20240246920A1, “TRIAZOLE DERIVATIVES WITH ANTIFUNGAL ACTIVITY” (King's College London, priority 2020, published 2024).
≈ marks a conversion by molar mass, not a printed value.

What was measured:
C. auris 8984 = test: Candida panel MIC, serial dilution in 96-well plates; type: cell-based, Candida auris; conditions: Candidozyma auris, 8984, read-out: MIC C. auris 8984
Method: (§1) The minimum inhibitory concentration of test compounds were determined in a panel of Candida species (see Table 4 below), using the a serial dilution method in 96-well plates using the following protocol.
(§2) Starter cultures of fungal strains to be tested were grown in 3 mL of RPMI 2% glucose media incubated at 37° C. with shaking at 200 rpm overnight. The culture media used was 900 mL H2O; 10.4 g RPMI 1640 (with L-glutamine and a pH indicator but without bicarbonate); 34.5 g MOPS and 18 g glucose. The pH of the media was adjusted to 7.0 with 1 M sodium hydroxide.
(§3) Solutions of the compound to be tested were prepared by dissolving the compound in DMSO and subsequently into media to the desired concentrations. […] The last two rows of each plate were control rows containing the culture media alone and the media plus fungi.
(§4) The fungi starter cultures were diluted 1:10 in water in cuvettes. This was then further diluted to an optical density (OD600) of 0.01 in media. 100 μL of the fungi was added to each well giving a starting concentration of fungus of 0.5-5×10^5/mL. One species of fungus was used on each plate. The plates were then held at 37° C. for 24 hours.
(§5) A plate reader was used to measure growth in each well at OD530 nm and the MIC was determined for each test compound. The MIC is defined as the lowest concentration giving rise to inhibition of ≥50% of that of the drug-free control well containing the fungus and media.
(§6) The Candida auris strains shown in Table 7 were either taken from the National Collection of Pathogenic Fungi (NCPF) or collected as part of ongoing surveillance studies. The strains were characterised as follows.

C. auris 8971 = test: as above; type: cell-based, Candida auris; conditions: Candidozyma auris, 8971, read-out: MIC C. auris 8971
Method: as §1, §2, §3, §4, §5, §6

C. auris 8977 = test: as above; type: cell-based, Candida auris; conditions: Candidozyma auris, 8977, read-out: MIC C. auris 8977
Method: as §1, §2, §3, §4, §5, §6

Candida auris TDG2211 = test: microbe, parasite or virus in culture; type: cell-based; conditions: Candidozyma auris, TDG2211, read-out: MIC C. auris 2211
Method: as §1, §2, §3, §4, §5, §6

Candida auris TDG2506 = test: microbe, parasite or virus in culture; type: cell-based; conditions: Candidozyma auris, TDG2506, read-out: MIC C. auris 2506
Method: as §1, §2, §3, §4, §5, §6

Compound | MIC (C. auris 8984) | MIC (C. auris 8971) | MIC (C. auris 8977) | MIC (Candida auris TDG2211) | MIC (Candida auris TDG2506)
OC(CN1CCC(Nc2ccc(OCCN3CCOCC3)cc2)CC1)(Cn1cncn1)c1ccc(F)cc1F (stereo not drawn) [Compound number 6, 2-(2,4-Difluorophenyl)-1-(4-((4-(2-morpholinoethoxy)phenyl)amino)piperidin-1-yl)-3-(1H-1,2,4-triazol-1-yl)propan-2-ol] | 0.125 µg/mL (≈ 0.23 µM) | 0.03 µg/mL (≈ 0.0553 µM) | 0.06 µg/mL (≈ 0.111 µM) | 0.25 µg/mL (≈ 0.461 µM) | 0.25 µg/mL (≈ 0.461 µM)
OC(CN1CCC(Nc2ccc(Cc3ccccc3)cc2)CC1)(Cn1cncn1)c1ccc(F)cc1F (stereo not drawn) [Compound number 11, 1-(4-((4-benzylphenyl)amino)piperidin-1-yl)-2-(2,4-difluorophenyl)-3-(1H-1,2,4-triazol-1-yl)propan-2-ol] | 0.125 µg/mL (≈ 0.248 µM) | ≤ 0.125 µg/mL | ≤ 0.125 µg/mL | ≤ 0.125 µg/mL | 0.125 µg/mL (≈ 0.248 µM)
OC(CN1CCC(N2CCC(Nc3ccc(Cc4ccccc4)cc3)CC2)CC1)(Cn1cncn1)c1ccc(F)cc1F (stereo not drawn) [Compound number 12, 1-(4-((4-benzylphenyl)amino)-[1,4′-bipiperidin]-1′-yl)-2-(2,4-difluorophenyl)-3-(1H-1,2,4-triazol-1-yl)propan-2-ol] | ≤ 0.125 µg/mL | ≤ 0.125 µg/mL | ≤ 0.125 µg/mL | ≤ 0.125 µg/mL | ≤ 0.125 µg/mL
OC(CN1CCC2(CCC(Nc3ccc(Cc4ccccc4)cc3)CC2)C1)(Cn1cncn1)c1ccc(F)cc1F (stereo not drawn) [Compound number 13, 1-(8-((4-benzylphenyl)amino)-2-azaspiro[4.5]decan-2-yl)-2-(2,4-difluorophenyl)-3-(1H-1,2,4-triazol-1-yl)propan-2-ol] | ≤ 0.003 µg/mL | ≤ 0.125 µg/mL | ≤ 0.125 µg/mL | ≤ 0.125 µg/mL | ≤ 0.125 µg/mL
OC(CN1CCC2(CCC(Nc3ccc(OCCN4CCOCC4)cc3)CC2)C1)(Cn1cncn1)c1ccc(F)cc1F (stereo not drawn) [Compound number 87, 2-(2,4-difluorophenyl)-1-(8-((4-(2-morpholinoethoxy)phenyl)amino)-2-azaspiro[4.5]decan-2-yl)-3-(1H-1,2,4-triazol-1-yl)propan-2-ol] | 0.25 µg/mL (≈ 0.419 µM) | 0.25 µg/mL (≈ 0.419 µM) | 0.25 µg/mL (≈ 0.419 µM) | 0.125 µg/mL (≈ 0.209 µM) | 0.125 µg/mL (≈ 0.209 µM)
OC(CN1CCC(Nc2ccc(OCc3ccccc3)cc2)CC1)(Cn1cncn1)c1ccc(F)cc1F (stereo not drawn) [Compound number 90, 1-(4-((4-(benzyloxy)phenyl)amino)piperidin-1-yl)-2-(2,4-difluorophenyl)-3-(1H-1,2,4-triazol-1-yl)propan-2-ol] | ≤ 0.003 µg/mL | ≤ 0.003 µg/mL | ≤ 0.003 µg/mL | ≤ 0.003 µg/mL | ≤ 0.003 µg/mL
